# Reference: patent US9833497B2, “Human originated EGF domain proteins and use of the same” (CHENGDU SOURCEBIO LIMITED-LIABILITY COMPANY, priority 2013, dated 2017)
# Key:
# Format in all cases: cell-based
# [1] = test system: Pseudomonas aeruginosa; test: MIC against Gram-negative bacteria: Pseudomonas aeruginosa; details: 5×10^5 CFU/mL
# Procedure, shortened: (§1)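 Broth microdilution, LB medium, final inoculum 5×10^5 CFU/mL from McFarland 0.5 cultures. Recombinant human EGF domain proteins tested in two-fold steps, n=3. MIC: lowest concentration, no growth.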
# [2] = test system: Citrobacter diversus; test: MIC against Gram-negative bacteria: Citrobacter diversus; details: 5×10^5 CFU/mL
# Procedure, shortened: as §1
# [3] = test system: Proteus vulgaris; test: MIC against Gram-negative bacteria: Proteus vulgaris; details: 5×10^5 CFU/mL
# Procedure, shortened: as §1
# [4] = test system: Enterobacter cloacae; test: MIC against Gram-negative bacteria: Enterobacter cloacae; details: 5×10^5 CFU/mL
# Procedure, shortened: as §1
# [5] = test system: Moraxella catarrhalis; test: MIC against Gram-negative bacteria: Moraxella catarrhalis; details: 5×10^5 CFU/mL
# Procedure, shortened: as §1
# [6] = test system: E. coli DH5α; test: Antibacterial activity: MIC and growth curve against E. coli DH5α in 96-well plate; details: minimal inhibitory concentration against E. coli DH5α; 96-well plate, 5×10^5 CFU/mL, 37° C., judged after 8 h
# Procedure, shortened: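 Log-phase bacteria (OD600 ~0.5) resuspended in LB at 5×10^5 CFU/mL, exposed to recombinant protein at 50, 25, 12.5 μg/mL final in triplicate, 37 °C shaking at 175 rpm. OD600 read every 30 min; MIC is lowest concentration showing no growth.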
# [7] = test system: Aeromonas hydrophila; test: MIC against Gram-negative bacteria: Aeromonas hydrophila; details: 5×10^5 CFU/mL
# Procedure, shortened: as §1
# [8] = test system: Serratia marcescens; test: MIC against Gram-negative bacteria: Serratia marcescens; details: 5×10^5 CFU/mL
# Procedure, shortened: as §1
# [9] = test system: Proteus mirabilis; test: MIC against Gram-negative bacteria: Proteus mirabilis; details: 5×10^5 CFU/mL
# Procedure, shortened: as §1
# [10] = test system: Klebsiella pneumonia; test: MIC against Gram-negative bacteria: Klebsiella pneumonia; details: 5×10^5 CFU/mL
# Procedure, shortened: as §1
# [11] = test system: E. coli BL21; test: MIC against Gram-negative bacteria: E. coli BL21; details: 5×10^5 CFU/mL
# Procedure, shortened: as §1
# [12] = Pseudomonas aeruginosa, 96-well plate, 37° C., 10 h
# [13] = Citrobacter diversus, 96-well plate, 37° C., 10 h
# [14] = Proteus vulgaris, 96-well plate, 37° C., 10 h
# [15] = Enterobacter cloacae, 96-well plate, 37° C., 10 h
# [16] = Moraxella catarrhalis, 96-well plate, 37° C., 10 h
# [17] = Aeromonas hydrophila, 96-well plate, 37° C., 10 h
# [18] = Serratia marcescens, 96-well plate, 37° C., 10 h
# [19] = Proteus mirabilis, 96-well plate, 37° C., 10 h
# [20] = Klebsiella pneumonia, 96-well plate, 37° C., 10 h
# [21] = E. coli BL21, 96-well plate, 37° C., 10 h
# [22] = P. aeruginosa, 10 h cultivation at 37° C.
# [23] = C. diversus, 10 h cultivation at 37° C.
# [24] = P. vulgaris, 10 h cultivation at 37° C.
# [25] = E. cloacae, 10 h cultivation at 37° C.
# [26] = M. catarrhalis, 10 h cultivation at 37° C.
# [27] = A. hydrophila, 10 h cultivation at 37° C.
# [28] = S. marcescens, 10 h cultivation at 37° C.
# [29] = P. mirabilis, 10 h cultivation at 37° C.
# [30] = K. pneumonia, 10 h cultivation at 37° C.
# [31] = E. coli BL21, 10 h cultivation at 37° C.
substance,measurement,setting,value
PRT624 (CRCSPLGAASAQCHENGTCVCRPGFEGYKCDRCHDNFFLTADGTHCQQC; listed as Homo sapiens),MIC P. aeruginosa,"[1]; 96-well plate, 37° C., 10 h",25 µg/mL
same,MIC C. diversus,"[2]; 96-well plate, 37° C., 10 h",25 µg/mL
same,MIC P. vulgaris,"[3]; 96-well plate, 37° C., 10 h",12.5 µg/mL
same,MIC E. cloacae,"[4]; 96-well plate, 37° C., 10 h",25 µg/mL
same,MIC M. catarrhalis,"[5]; 96-well plate, 37° C., 10 h",12.5 µg/mL
same,MIC,[6],25 µg/mL
same,MIC A. hydrophila,"[7]; 96-well plate, 37° C., 10 h",12.5 µg/mL
same,MIC S. marcescens,"[8]; 96-well plate, 37° C., 10 h",25 µg/mL
same,MIC P. mirabilis,"[9]; 96-well plate, 37° C., 10 h",25 µg/mL
same,MIC K. pneumonia,"[10]; 96-well plate, 37° C., 10 h",50 µg/mL
same,MIC E. coli BL21,"[11]; 96-well plate, 37° C., 10 h",100 µg/mL
PRT1303 (HGLCRSVEKDSVVCECRPGWTGPLCD; listed as Homo sapiens),MIC against P. aeruginosa,[1]; [12],12.5 µg/mL
same,MIC against C. diversus,[2]; [13],12.5 µg/mL
same,MIC against P. vulgaris,[3]; [14],12.5 µg/mL
same,MIC against E. cloacae,[4]; [15],12.5 µg/mL
same,MIC against M. catarrhalis,[5]; [16],12.5 µg/mL
same,MIC,[6],12.5 µg/mL
same,MIC against A. hydrophila,[7]; [17],50 µg/mL
same,MIC against S. marcescens,[8]; [18],25 µg/mL
same,MIC against P. mirabilis,[9]; [19],25 µg/mL
same,MIC against K. pneumonia,[10]; [20],50 µg/mL
same,MIC against E. coli BL21,[11]; [21],50 µg/mL
PRT1322 (PIDPCRAGNGGCHGLATCRAVGGGQRVCTCPPGFGGDGFS; listed as Homo sapiens),MIC against P. aeruginosa,[1]; [12],12.5 µg/mL
same,MIC against C. diversus,[2]; [13],50 µg/mL
same,MIC against P. vulgaris,[3]; [14],25 µg/mL
same,MIC against E. cloacae,[4]; [15],50 µg/mL
same,MIC against M. catarrhalis,[5]; [16],12.5 µg/mL
same,MIC,[6],12.5 µg/mL
same,MIC against A. hydrophila,[7]; [17],12.5 µg/mL
same,MIC against S. marcescens,[8]; [18],12.5 µg/mL
same,MIC against P. mirabilis,[9]; [19],12.5 µg/mL
same,MIC against K. pneumonia,[10]; [20],25 µg/mL
same,MIC against E. coli BL21,[11]; [21],25 µg/mL
PRT14 (PPKPCDSQPCFHGGTCQDWALGGGFTCSCPAGRGGAVCE; listed as Homo sapiens),MIC (μg/mL) P. aeruginosa,[1]; [12],25 µg/mL
same,MIC (μg/mL) C. diversus,[2]; [13],25 µg/mL
same,MIC (μg/mL) P. vulgaris,[3]; [14],50 µg/mL
same,MIC (μg/mL) E. cloacae,[4]; [15],25 µg/mL
same,MIC (μg/mL) M. catarrhalis,[5]; [16],12.5 µg/mL
same,MIC,[6],25 µg/mL
same,MIC (μg/mL) A. hydrophila,[7]; [17],50 µg/mL
same,MIC (μg/mL) S. marcescens,[8]; [18],12.5 µg/mL
same,MIC (μg/mL) P. mirabilis,[9]; [19],25 µg/mL
same,MIC (μg/mL) K. pneumonia,[10]; [20],12.5 µg/mL
same,MIC (μg/mL) E. coli BL21,[11]; [21],50 µg/mL
PRT533 (GTINSNLGYCQCKLHVEGPTCSRCKLLYWNLDKENPSGCSE; listed as Homo sapiens),MIC against P. aeruginosa,"[1]; 96-well plate, 37° C., 10 h",100 µg/mL
same,MIC against C. diversus,"[2]; 96-well plate, 37° C., 10 h",12.5 µg/mL
same,MIC against P. vulgaris,"[3]; 96-well plate, 37° C., 10 h",25 µg/mL
same,MIC against E. cloacae,"[4]; 96-well plate, 37° C., 10 h",50 µg/mL
same,MIC against M. catarrhalis,"[5]; 96-well plate, 37° C., 10 h",25 µg/mL
same,MIC,[6],50 µg/mL
same,MIC against A. hydrophila,"[7]; 96-well plate, 37° C., 10 h",25 µg/mL
same,MIC against S. marcescens,"[8]; 96-well plate, 37° C., 10 h",12.5 µg/mL
same,MIC against P. mirabilis,"[9]; 96-well plate, 37° C., 10 h",50 µg/mL
same,MIC against K. pneumonia,"[10]; 96-well plate, 37° C., 10 h",25 µg/mL
same,MIC against E. coli BL21,"[11]; 96-well plate, 37° C., 10 h",25 µg/mL
PRT747 (DIDECKDPDACSQICVNYKGYFKCECYPGYEMDLLTKNCK; listed as Homo sapiens),MIC (μg/mL) P. aeruginosa,[1]; [22],12.5 µg/mL
same,MIC (μg/mL) C. diversus,[2]; [23],50 µg/mL
same,MIC (μg/mL) P. vulgaris,[3]; [24],25 µg/mL
same,MIC (μg/mL) E. cloacae,[4]; [25],12.5 µg/mL
same,MIC (μg/mL) M. catarrhalis,[5]; [26],12.5 µg/mL
same,MIC,[6],50 µg/mL
same,MIC (μg/mL) A. hydrophila,[7]; [27],12.5 µg/mL
same,MIC (μg/mL) S. marcescens,[8]; [28],12.5 µg/mL
same,MIC (μg/mL) P. mirabilis,[9]; [29],50 µg/mL
same,MIC (μg/mL) K. pneumonia,[10]; [30],12.5 µg/mL
same,MIC (μg/mL) E. coli BL21,[11]; [31],50 µg/mL
PRT893 (NINECSSQPCRHGGTCQDRDNAYLCFCLKGTTGPNCE; listed as Homo sapiens),MIC (μg/mL) P. aeruginosa,[1]; [22],50 µg/mL
same,MIC (μg/mL) C. diversus,[2]; [23],50 µg/mL
same,MIC (μg/mL) P. vulgaris,[3]; [24],50 µg/mL
same,MIC (μg/mL) E. cloacae,[4]; [25],12.5 µg/mL
same,MIC (μg/mL) M. catarrhalis,[5]; [26],25 µg/mL
same,MIC,[6],12.5 µg/mL
same,MIC (μg/mL) A. hydrophila,[7]; [27],25 µg/mL
same,MIC (μg/mL) S. marcescens,[8]; [28],12.5 µg/mL
same,MIC (μg/mL) P. mirabilis,[9]; [29],12.5 µg/mL
same,MIC (μg/mL) K. pneumonia,[10]; [30],25 µg/mL
same,MIC (μg/mL) E. coli BL21,[11]; [31],25 µg/mL
